Experimental data reported in publication PMC11409674, “Raffinocyclicin is a novel plasmid-encoded circular bacteriocin produced by Lactococcus raffinolactis with broad-spectrum activity against many gram-positive food pathogens” (Applied and environmental microbiology, 2024).
“Also recorded” adds a separate entry of the source.

How the values were obtained:
[1] = tested on: proteases; set-up: method as in 4 sources, ref 33 = [33]; PMID 21948835; doi:10.1128/AEM.06348-11; 33 Masuda Y Ono H Kitagawa H Ito H Mu F Sawa N Zendo T Sonomoto K Identification and characterization of leucocyclicin Q, a novel cyclic bacteriocin produced by Leuconostoc mesenteroides TK41401 Appl ||| ref 27 = [27]; PMID 21057028; doi:10.1128/AEM.01173-10; 27 Borrero J Brede DA Skaugen M Diep DB Herranz C Nes IF Cintas LM Hernández PE Characterization of garvicin ML, a novel circular bacteriocin produced by Lactococcus garvieae DCC43, isolated from mall ||| ref 30 = [30]; PMID 29177092; doi:10.1099/mgen.0.000134; 30 van Heel AJ Montalban-Lopez M Oliveau Q Kuipers OP Genome-guided identification of novel head-to-tail cyclized antimicrobial peptides, exemplified by the discovery of pumilarin Microb Genom 2017 3 ||| ref 29 = [29]; PMID 18552180; doi:10.1128/AEM.00817-08; 29 Martin-Visscher LA van Belkum MJ Garneau-Tsodikova S Whittal RM Zheng J McMullen LM Vederas JC Isolation and characterization of carnocyclin A, a novel circular bacteriocin produced by Carnobacteri; settings: cited from earlier work
[2] = tested on: Staphylococcus epidermidis DSM 3095; assay: spot-on-lawn assay; format: cell-based; settings: producer spot on M17, chloroform-inactivated, overlay ~7.0 log CFU/mL indicator; 37 °C, Aerobic, BHI; true halo, triplicate
[3] = tested on: Staphylococcus capitis APC 2923; assay: spot-on-lawn assay; format: cell-based; set-up: key: –: no activity; +: 0.5–5 mm inhibition zone; ++: >5–≤10 mm inhibition zone; +++: >10 mm inhibition zone; settings: producer spot on M17, chloroform-inactivated, overlay ~7.0 log CFU/mL indicator; 37 °C, Aerobic, BHI; true halo, triplicate
[4] = tested on: Staphylococcus pseudointermedius DK 279; assay: spot-on-lawn assay; format: cell-based; set-up: key: –: no activity; +: 0.5–5 mm inhibition zone; ++: >5–≤10 mm inhibition zone; +++: >10 mm inhibition zone; settings: producer spot on M17, chloroform-inactivated, overlay ~7.0 log CFU/mL indicator; 37 °C, Aerobic, BHI; true halo, triplicate
[5] = tested on: Staphylococcus aureus DPC 5645; assay: spot-on-lawn assay; format: cell-based; set-up: key: –: no activity; +: 0.5–5 mm inhibition zone; ++: >5–≤10 mm inhibition zone; +++: >10 mm inhibition zone; settings: producer spot on M17, chloroform-inactivated, overlay ~7.0 log CFU/mL indicator; 37 °C, Aerobic, BHI; true halo, triplicate
[6] = tested on: S. aureus C5M; assay: spot-on-lawn assay; format: cell-based, Staphylococcus aureus; set-up: key: –: no activity; +: 0.5–5 mm inhibition zone; ++: >5–≤10 mm inhibition zone; +++: >10 mm inhibition zone; settings: producer spot on M17, chloroform-inactivated, overlay ~7.0 log CFU/mL indicator; 37 °C, Aerobic, BHI; true halo, triplicate
[7] = tested on: S. aureus B2M; assay: spot-on-lawn assay; format: cell-based, Staphylococcus aureus; settings: producer spot on M17, chloroform-inactivated, overlay ~7.0 log CFU/mL indicator; 37 °C, Aerobic, BHI; true halo, triplicate
[8] = tested on: Enterococcus faecalis ATCC 29200; assay: spot-on-lawn assay; format: cell-based; settings: producer spot on M17, chloroform-inactivated, overlay ~7.0 log CFU/mL indicator; 37 °C, Aerobic, BHI; true halo, triplicate
[9] = tested on: E. faecalis V583; assay: spot-on-lawn assay; format: cell-based, Enterococcus faecalis; settings: producer spot on M17, chloroform-inactivated, overlay ~7.0 log CFU/mL indicator; 37 °C, Aerobic, BHI; true halo, triplicate
[10] = tested on: Enterococcus faecium NCD 0942; assay: spot-on-lawn assay; format: cell-based; settings: producer spot on M17, chloroform-inactivated, overlay ~7.0 log CFU/mL indicator; 37 °C, Aerobic, BHI; true halo, triplicate
[11] = tested on: E. faecium DPC 5152; assay: spot-on-lawn assay; format: cell-based, Enterococcus faecium; settings: producer spot on M17, chloroform-inactivated, overlay ~7.0 log CFU/mL indicator; 37 °C, Aerobic, BHI; true halo, triplicate
[12] = tested on: E. faecium DPC 3675; assay: spot-on-lawn assay; format: cell-based, Enterococcus faecium; settings: producer spot on M17, chloroform-inactivated, overlay ~7.0 log CFU/mL indicator; 37 °C, Aerobic, BHI; true halo, triplicate
[13] = tested on: E. faecium DSM 26544; assay: spot-on-lawn assay; format: cell-based, Enterococcus faecium; settings: producer spot on M17, chloroform-inactivated, overlay ~7.0 log CFU/mL indicator; 37 °C, Aerobic, BHI; true halo, triplicate
[14] = tested on: VRE APC 1026; assay: spot-on-lawn assay; format: cell-based, vancomycin-resistant enterococci; settings: producer spot on M17, chloroform-inactivated, overlay ~7.0 log CFU/mL indicator; 37 °C, Aerobic, BHI; true halo, triplicate
[15] = tested on: VRE APC 1027; assay: spot-on-lawn assay; format: cell-based, vancomycin-resistant enterococci; settings: producer spot on M17, chloroform-inactivated, overlay ~7.0 log CFU/mL indicator; 37 °C, Aerobic, BHI; true halo, triplicate
[16] = tested on: VRE APC 1028; assay: spot-on-lawn assay; format: cell-based, vancomycin-resistant enterococci; settings: producer spot on M17, chloroform-inactivated, overlay ~7.0 log CFU/mL indicator; 37 °C, Aerobic, BHI; true halo, triplicate
[17] = tested on: VRE APC 1029; assay: spot-on-lawn assay; format: cell-based, vancomycin-resistant enterococci; settings: producer spot on M17, chloroform-inactivated, overlay ~7.0 log CFU/mL indicator; 37 °C, Aerobic, BHI; true halo, triplicate
[18] = tested on: Micrococcus luteus APC 4061; assay: spot-on-lawn assay; format: cell-based; settings: producer spot on M17, chloroform-inactivated, overlay ~7.0 log CFU/mL indicator; 37 °C, Aerobic, BHI; true halo, triplicate
[19] = tested on: Streptococcus agalactiae 35; assay: spot-on-lawn assay; format: cell-based; settings: producer spot on M17, chloroform-inactivated, overlay ~7.0 log CFU/mL indicator; 37 °C, Aerobic, TSA; true halo, triplicate
[20] = tested on: S. agalactiae 119; assay: spot-on-lawn assay; format: cell-based, Streptococcus agalactiae; settings: producer spot on M17, chloroform-inactivated, overlay ~7.0 log CFU/mL indicator; 37 °C, Aerobic, TSA; true halo, triplicate
[21] = tested on: Lactococcus lactis HP; assay: spot-on-lawn assay; format: cell-based; settings: producer spot on M17, chloroform-inactivated, overlay ~7.0 log CFU/mL indicator; 30 °C, Aerobic, GM17; true halo, triplicate
[22] = tested on: L. lactis ATCC 11454; assay: spot-on-lawn assay; format: cell-based, Lactococcus lactis; settings: producer spot on M17, chloroform-inactivated, overlay ~7.0 log CFU/mL indicator; 30 °C, Aerobic, GM17; true halo, triplicate
[23] = tested on: Lactobacillus delbrueckii subsp. bulgaricus LMG 6901; assay: spot-on-lawn assay; format: cell-based; settings: producer spot on M17, chloroform-inactivated, overlay ~7.0 log CFU/mL indicator; 37 °C, Anaerobic, MRS; true halo, triplicate
[24] = tested on: Leuconostoc mesenteroides KH 24; assay: spot-on-lawn assay; format: cell-based; settings: producer spot on M17, chloroform-inactivated, overlay ~7.0 log CFU/mL indicator; 30 °C, Aerobic, MRS; true halo, triplicate
[25] = tested on: Listeria innocua UCC; assay: spot-on-lawn assay; format: cell-based; settings: producer spot on M17, chloroform-inactivated, overlay ~7.0 log CFU/mL indicator; 37 °C, Aerobic, BHI; true halo, triplicate
[26] = tested on: Listeria monocytogenes EDGe; assay: spot-on-lawn assay; format: cell-based; settings: producer spot on M17, chloroform-inactivated, overlay ~7.0 log CFU/mL indicator; 37 °C, Aerobic, BHI; true halo, triplicate
[27] = tested on: Clostridium perfringens EM124; format: cell-based; settings: producer spot on M17, chloroform-inactivated, overlay ~7.0 log CFU/mL indicator; 37 °C, Anaerobic, RCM; true halo, triplicate
[28] = tested on: Bacilllus cereus KH 1453; assay: spot-on-lawn assay; format: cell-based; set-up: key: –: no activity; +: 0.5–5 mm inhibition zone; ++: >5–≤10 mm inhibition zone; +++: >10 mm inhibition zone; settings: producer spot on M17, chloroform-inactivated, overlay ~7.0 log CFU/mL indicator; 37 °C, Aerobic, BHI; true halo, triplicate
[29] = tested on: Escherichia sp. UCC; assay: spot-on-lawn assay; format: cell-based; set-up: key to Activity (inhibition zone): –: no activity; +: 0.5–5 mm inhibition zone; ++: >5–≤10 mm inhibition zone; +++: >10 mm inhibition zone
Description: The antimicrobial activity of the strain L. raffinolactis APC 3967 was evaluated on M17 medium by the agar-spot test as described by Giambiagi-deMarval et al. ([42]) with minor modifications ([42]). Briefly, 5 µL of an overnight growth suspension of the producer strain was spotted on the surface of the agar plate and incubated overnight at 30°C. Cells were inactivated by chloroform and overlaid with 3 mL soft agar (0.75% wt/vol) containing the target strain (~7.0 log CFU/mL), and these plates were incubated overnight. The growth conditions of every target strain used in this assay are outlined in Table 1. The interpretation of inhibition was performed by measuring the true halo of the inhibitory zone (total halo – spot size = true halo) and was classified into one of four groups: (i) no inhibition (0 mm); (ii) weak inhibition (0.5–5 mm); (iii) moderate inhibition (>5–≤10 mm); and (iv) strong inhibition (>10 mm). These assays were performed in triplicate.

[30] = tested on: Klebsiella pneumoniae C02.b; assay: spot-on-lawn assay; format: cell-based; set-up: key: –: no activity; +: 0.5–5 mm inhibition zone; ++: >5–≤10 mm inhibition zone; +++: >10 mm inhibition zone; settings: producer spot on M17, chloroform-inactivated, overlay ~7.0 log CFU/mL indicator; 37 °C, Aerobic, BHI; true halo, triplicate
[31] = tested on: Pseudomonas aeruginosa PA-01; assay: spot-on-lawn assay; format: cell-based; set-up: key: –: no activity; +: 0.5–5 mm inhibition zone; ++: >5–≤10 mm inhibition zone; +++: >10 mm inhibition zone; settings: producer spot on M17, chloroform-inactivated, overlay ~7.0 log CFU/mL indicator; 37 °C, Aerobic, BHI; true halo, triplicate
[32] = residual antimicrobial activity after NaOH treatment; format: physicochemical; settings: NaOH 0.2 M, 37 °C, 4 h
Description: The effects of proteinase K (1 mg/mL; Sigma-Aldrich, St Louis, USA), trypsin (1 mg/mL; Merck KgaA, Darmstad, DE), and 0.2 M NaOH on antimicrobial activity were evaluated on agar plates by the methods described previously ([42]). Briefly, 5 µL of an overnight growth suspension of the strain L. raffinolactis APC 3967 was spotted four times on a plate and incubated at optimal conditions. Afterward, the cells were inactivated by chloroform, and 40 µL of the corresponding treatment (protease or NaOH 0.2 M) was spotted around the producer strain. The control was treated with 10 mM PBS, pH 7.4. The plate was incubated at 37°C for 4 h to favor protease activity. The plate was then overlaid with L. lactis HP and incubated at 30°C for 24 h. Results were interpreted by measuring the true halo of the sample, and the following equation calculated the final values of the residual activity: (true halo of treated condition/true halo of the control) × 100 = residual activity (%).

Substance: lactocyclicin Q
- sensitivity to proteolytic activity [1]: resistant

Substance: leucocyclicin Q
- sensitivity to proteolytic activity [1]: resistant

Substance: raffinocyclicin
- Activity (inhibition zone) [2]: + (0.5–5 mm inhibition zone)
- Activity (inhibition zone) [3]: –
- Activity (inhibition zone) [4]: –
- Activity (inhibition zone) [5]: –
- Activity (inhibition zone) [6]: –
- Activity (inhibition zone) [7]: + (0.5–5 mm inhibition zone)
- Activity (inhibition zone) [8]: ++ (>5–≤10 mm inhibition zone)
- Activity (inhibition zone) [9]: + (0.5–5 mm inhibition zone)
- Activity (inhibition zone) [10]: ++ (>5–≤10 mm inhibition zone)
- Activity (inhibition zone) [11]: + (0.5–5 mm inhibition zone)
- Activity (inhibition zone) [12]: ++ (>5–≤10 mm inhibition zone)
- Activity (inhibition zone) [13]: + (0.5–5 mm inhibition zone)
- Activity (inhibition zone) [14]: ++ (>5–≤10 mm inhibition zone)
- Activity (inhibition zone) [15]: ++ (>5–≤10 mm inhibition zone)
- Activity (inhibition zone) [16]: ++ (>5–≤10 mm inhibition zone)
- Activity (inhibition zone) [17]: ++ (>5–≤10 mm inhibition zone)
- Activity (inhibition zone) [18]: ++ (>5–≤10 mm inhibition zone)
- Activity (inhibition zone) [19]: ++ (>5–≤10 mm inhibition zone)
- Activity (inhibition zone) [20]: ++ (>5–≤10 mm inhibition zone)
- Activity (inhibition zone) [21]: +++ (>10 mm inhibition zone)
- Activity (inhibition zone) [22]: +++ (>10 mm inhibition zone)
- Activity (inhibition zone) [23]: + (0.5–5 mm inhibition zone)
- Activity (inhibition zone) [24]: + (0.5–5 mm inhibition zone)
- Activity (inhibition zone) [25]: ++ (>5–≤10 mm inhibition zone)
- Activity (inhibition zone) [26]: + (0.5–5 mm inhibition zone)
- Activity (inhibition zone) [27]: +++ (>10 mm inhibition zone)
- Activity (inhibition zone) [28]: –
- Activity (inhibition zone) ([29]; producer spot on M17, chloroform-inactivated, overlay ~7.0 log CFU/mL indicator, 37 °C, Aerobic, BHI, true halo, triplicate): –
- inhibition in the spot-on-lawn assay, in words ([29]; spot-on-lawn assay, producer L. raffinolactis APC 3967): No inhibition
- Activity (inhibition zone) [30]: –
- Activity (inhibition zone) [31]: –
- antimicrobial activity after NaOH treatment, in words ([32]; indicator L. lactis HP): resistant; also recorded: remained unchanged
- Phenotype ([32]; 40 µL spotted around chloroform-inactivated producer spot, overlay L. lactis HP, 30 °C, 24 h): R
- Residual activity ([32]; 40 µL spotted around chloroform-inactivated producer spot, overlay L. lactis HP, 30 °C, 24 h, true halo treated/control (10 mM PBS pH 7.4) × 100): 100%
